Columns and labels:
bedstraw = assay: Test B pre/postemergence bedstraw; assay type: in vivo, Galium aparine
In short: (§1)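 Test chemicals in a non-phytotoxic solvent mixture with surfactant were sprayed preemergence onto planted seeds and postemergence onto plants 2 to 18 cm tall (1- to 4-leaf stage). After twelve to sixteen days in a greenhouse, injury was visually rated against untreated controls from 0 (no effect) to 10 (complete control).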

wheat = assay: Test B pre/postemergence wheat; assay type: in vivo, Triticum aestivum
In short: as §1

cocklebur = assay: Test B pre/postemergence cocklebur; assay type: in vivo, Xanthium strumarium
In short: as §1

wild oat = assay: Test B pre/postemergence wild oat; assay type: in vivo, Avena fatua
In short: as §1

sugar beet = assay: Test B pre/postemergence sugar beet; assay type: in vivo, Beta vulgaris
In short: as §1

soybean = assay: Test B pre/postemergence soybean; assay type: in vivo, Glycine max
In short: as §1

crabgrass = assay: Test B pre/postemergence crabgrass; assay type: in vivo, Digitaria sanguinalis
In short: as §1

surinam grass = assay: Test B pre/postemergence surinam grass; assay type: in vivo, Brachiaria decumbens; conditions: Postemergence
In short: as §1

purple nutsedge = assay: Test B pre/postemergence purple nutsedge; assay type: in vivo, Cyperus rotundus
In short: as §1

corn = assay: Test B pre/postemergence corn; assay type: in vivo, Zea mays
In short: as §1

giant foxtail = assay: Test B pre/postemergence giant foxtail; assay type: in vivo, Setaria faberii
In short: as §1

pigweed = assay: Test B pre/postemergence pigweed; assay type: in vivo, Amaranthus retroflexus
In short: as §1

morningglory = assay: Test B pre/postemergence morningglory; assay type: in vivo, Ipomoea hederacea
In short: as §1

rape = assay: Test B pre/postemergence rape; assay type: in vivo, Brassica napus
In short: as §1

blackgrass = assay: Test B pre/postemergence blackgrass; assay type: in vivo, Alopecurus myosuroides
In short: as §1

velvetleaf = assay: Test B pre/postemergence velvetleaf; assay type: in vivo, Abutilon theophrasti
In short: as §1

[1] = Postemergence, Rate 62 g/ha, scale 0 to 10, 0 is no effect, 10 is complete control
[2] = Postemergence, Rate 125 g/ha, scale of 0 to 10 where 0 is no effect and 10 is complete control
[3] = Preemergence, Rate 125 g/ha, scale of 0 to 10 where 0 is no effect and 10 is complete control
[4] = Preemergence, Rate 250 g/ha, scale 0 (no effect) to 10 (complete control)
[5] = Rate 500 g/ha, Postemergence, scale 0 to 10, 0 is no effect, 10 is complete control
[6] = Rate 500 g/ha, Preemergence, scale 0 to 10 (0 no effect, 10 complete control)
[7] = Rate 62 g/ha, Preemergence, scale 0 to 10
[8] = Rate 250 g/ha, Postemergence, scale 0 to 10, 0 is no effect, 10 is complete control

CCC(C)n1c(=O)on(C(=O)N(c2ccc(F)cc2)C(C)C)c1=O (stereo not shown) [Compound 751]
2: Plant response rating, Bedstraw (bedstraw; [3]) | Cocklebur plant response rating (cocklebur; [2]) | Cocklebur plant response rating (cocklebur; [8]) | Cocklebur plant response rating (cocklebur; [5]) | Plant response rating, Sugarbeets (sugar beet; [3]) | Sugarbeets plant response rating (sugar beet; [7]) | Plant response rating, Soybean (soybean; [1]) | Corn plant response rating (corn; [5]) | Plant response rating, Rape (rape; [1]) | Velvetleaf plant response rating (velvetleaf; [2]) | Velvetleaf plant response rating (velvetleaf; [8])
3: Wheat plant response rating (wheat; [5]) | Wild oats plant response rating (wild oat; [7]) | Wild oats plant response rating (wild oat; [8]) | Plant response rating, Sugarbeets (sugar beet; [1]) | Sugarbeets plant response rating (sugar beet; [2]) | Sugarbeets plant response rating (sugar beet; [8]) | Sugarbeets plant response rating (sugar beet; [5]) | Soybean plant response rating (soybean; [2]) | Plant response rating, B. signalgrass (surinam grass; Rate 62 g/ha, scale 0 to 10, 0 is no effect, 10 is complete control) | B. signalgrass plant response rating (surinam grass; Rate 125 g/ha, scale of 0 to 10 where 0 is no effect and 10 is complete control) | Rape plant response rating (rape; [2]) | Velvetleaf plant response rating (velvetleaf; [5])
5: Bedstraw plant response rating (bedstraw; [2]) | Wheat plant response rating (wheat; [4]) | Wheat plant response rating (wheat; [8]) | Wild oats plant response rating (wild oat; [5]) | Sugarbeets plant response rating (sugar beet; [4]) | Plant response rating, Morningglory (morningglory; [3]) | Morningglory plant response rating (morningglory; [4]) | Morningglory plant response rating (morningglory; [6]) | Rape plant response rating (rape; [8]) | Rape plant response rating (rape; [5])
9: Bedstraw plant response rating (bedstraw; [4]) | Soybean plant response rating (soybean; [6]) | Crabgrass plant response rating (crabgrass; [8]) | Crabgrass plant response rating (crabgrass; [5]) | Corn plant response rating (corn; [6]) | Giant foxtail plant response rating (giant foxtail; [2]) | Giant foxtail plant response rating (giant foxtail; [8]) | Giant foxtail plant response rating (giant foxtail; [5]) | Redroot pigweed plant response rating (pigweed; [8]) | Redroot pigweed plant response rating (pigweed; [5]) | Morningglory plant response rating (morningglory; [5]) | Rape plant response rating (rape; [6]) | Blackgrass plant response rating (blackgrass; [7])
0: Plant response rating, Bedstraw (bedstraw; [1]) | Plant response rating, Wheat (wheat; [1]) | Wheat plant response rating (wheat; [2]) | Wheat plant response rating (wheat; [7]) | Plant response rating, Cocklebur (cocklebur; [1]) | Plant response rating, Cocklebur (cocklebur; [3]) | Cocklebur plant response rating (cocklebur; [4]) | Cocklebur plant response rating (cocklebur; [7]) | Cocklebur plant response rating (cocklebur; [6]) | Plant response rating, Wild oats (wild oat; [1]) | Wild oats plant response rating (wild oat; [2]) | Plant response rating, Soybean (soybean; [3]) | Soybean plant response rating (soybean; [7]) | Plant response rating, Nutsedge (purple nutsedge; [1]) | Nutsedge plant response rating (purple nutsedge; [2]) | Plant response rating, Nutsedge (purple nutsedge; [3]) | Nutsedge plant response rating (purple nutsedge; [4]) | Nutsedge plant response rating (purple nutsedge; [7]) | Nutsedge plant response rating (purple nutsedge; [8]) | Nutsedge plant response rating (purple nutsedge; [6]) | Plant response rating, Corn (corn; [1]) | Corn plant response rating (corn; [2]) | Corn plant response rating (corn; [7]) | Corn plant response rating (corn; [8]) | Morningglory plant response rating (morningglory; [7]) | Plant response rating, Velvetleaf (velvetleaf; [1])
7: Bedstraw plant response rating (bedstraw; [5]) | Sugarbeets plant response rating (sugar beet; [6]) | Soybean plant response rating (soybean; [4]) | Soybean plant response rating (soybean; [8]) | Soybean plant response rating (soybean; [5]) | Plant response rating, Crabgrass (crabgrass; [1]) | B. signalgrass plant response rating (surinam grass; Rate 500 g/ha, scale 0 to 10, 0 is no effect, 10 is complete control) | Rape plant response rating (rape; [4]) | Blackgrass plant response rating (blackgrass; [5]) | Velvetleaf plant response rating (velvetleaf; [7])
4: Plant response rating, Wheat (wheat; [3]) | Plant response rating, Corn (corn; [3]) | Rape plant response rating (rape; [7])
6: B. signalgrass plant response rating (surinam grass; Rate 250 g/ha, scale 0 to 10, 0 is no effect, 10 is complete control) | Redroot pigweed plant response rating (pigweed; [2]) | Plant response rating, Rape (rape; [3]) | Plant response rating, Blackgrass (blackgrass; [1]) | Blackgrass plant response rating (blackgrass; [2]) | Blackgrass plant response rating (blackgrass; [8])
10: Bedstraw plant response rating (bedstraw; [6]) | Wheat plant response rating (wheat; [6]) | Wild oats plant response rating (wild oat; [4]) | Wild oats plant response rating (wild oat; [6]) | Plant response rating, Crabgrass (crabgrass; [3]) | Crabgrass plant response rating (crabgrass; [4]) | Crabgrass plant response rating (crabgrass; [7]) | Crabgrass plant response rating (crabgrass; [6]) | Nutsedge plant response rating (purple nutsedge; [5]) | Plant response rating, Giant foxtail (giant foxtail; [3]) | Giant foxtail plant response rating (giant foxtail; [4]) | Giant foxtail plant response rating (giant foxtail; [7]) | Giant foxtail plant response rating (giant foxtail; [6]) | Plant response rating, Redroot pigweed (pigweed; [3]) | Redroot pigweed plant response rating (pigweed; [4]) | Redroot pigweed plant response rating (pigweed; [7]) | Redroot pigweed plant response rating (pigweed; [6]) | Plant response rating, Blackgrass (blackgrass; [3]) | Blackgrass plant response rating (blackgrass; [4]) | Blackgrass plant response rating (blackgrass; [6])
8: Plant response rating, Wild oats (wild oat; [3]) | Crabgrass plant response rating (crabgrass; [2]) | Corn plant response rating (corn; [4]) | Plant response rating, Giant foxtail (giant foxtail; [1]) | Plant response rating, Morningglory (morningglory; [1]) | Morningglory plant response rating (morningglory; [2]) | Morningglory plant response rating (morningglory; [8]) | Plant response rating, Velvetleaf (velvetleaf; [3]) | Velvetleaf plant response rating (velvetleaf; [4]) | Velvetleaf plant response rating (velvetleaf; [6])

— patent US6737383B1, “Herbicidal oxadiazolidines” (priority 1999, dated 2004)
